For data set [1], the target named is T1, Avena-derived HPPD SEQ ID NO: 1 (Avena sativa, UniProt A0ACD5V6K6, DEL109-109). As to the kind of experiment: biochemical. It is filed as binding. As to conditions: for Off rate k1, individual experiments / koff: direct or indirect radiochemical method. As to the method:
On rates (governed by an association rate constant, kon) for the formation of the enzyme:inhibitor complexes, EI and off rates (governed by a dissociation rate constant, koff) were determined by methods known in the art and essentially as described in Hawkes et al. (2001) Proc. Bright. Crop. Prot. Conf. Weeds, 2:563-568 and in PCT Publication No. WO 02/46387).
Off rates (k1 in the scheme below) were derived from exchange rate studies where either the test inhibitor, I, or its exchange partner, J were radiolabelled and the data fit according to the scheme below. As noted in Hawkes et al. (2001) Proc. Bright. Crop. Prot. Conf.
After 30 minutes the exchange reaction was initiated with addition of 100 μl 1 mM ‘cold’ structure A with thorough mixing, and, immediately, 150 μl were withdrawn and loaded onto a NAP5 column, the protein exchanged into 50 mM BisTrisPropane buffer at pH 7.0 containing 0.1M KCl by rapid (<2 min) chromatography down a NAP5 G25 Sephadex® column (GE Healthcare Ltd, Buckinghamshire UK) and the amount of ^14C bound to protein measured by Optiphase scintillant using a Tri-Carb® 2900TR scintillation counter (Perkin Elmer, Wellesley, Mass.). Further aliquots were removed and measured in the same way at various times over minutes or hours as required in order to determine the exchange kinetics.
In this case, off rates were determined by preincubating ˜200 pmoles HPPD in reaction buffer (50 mM BTP pH 7, 25 mM Na ascorbate, 4 μg/ml bovine catalase, and 10% glycerol) containing ˜1.0 nmoles ^14C inhibitor at 25° C. in a total assay volume of 1.3 ml. After 30 minutes the reaction vessel was transferred to ice. After a further 10 minutes at ice temperature the exchange reaction was initiated by addition of 100 μl 1 mM Structure A, with thorough mixing, and 150 μl was withdrawn, loaded and quickly exchanged down a NAP5 column in a cold room at ˜5-8° C. in order to quantify the amount of radiolabel remaining bound to the protein at various time from the start of exchange at ice temperature.
Off rates (k1) of HPPD inhibitors that are not readily available radiolabelled or that present other measurement problems (for example high levels of background non-specific protein-binding which can be measured as radiolabel binding that persists in the presence of high concentrations of ‘cold’ inhibitor) may be measured indirectly. […] Exemplary methods are also described in PCT Publication No. WO 02/46387.

Data set [2] concerns the target T1, Avena-derived HPPD SEQ ID NO: 1. In words: On rate (kon, k2) of enzyme:inhibitor complex formation. The data set is classed as binding. As to conditions: read-out: On rate, activity based method.
For data set [3], the system named is tobacco plants expressing wheat HPPD (A7WK82). As to the kind of experiment: Glasshouse spray test on transgenic tobacco expressing wheat HPPD. The data set is classed as in vivo. As to conditions: 14 DAT. The procedure:
(§1) The CTP/HPPD encoding nucleotide sequence is edited by PCR (or initially synthesized) to include a 5′ XhoI site, a TMV omega enhancer (SEQ ID NO: 86) and a 3′ KpnI site (and to remove any such internal sites).
For example, a master plate of Agrobacterium tumefaciens containing the HPPD expressing binary vector is used to inoculate 10 ml LB (L broth) containing 100 mg/l rifampicin plus 50 mg/l kanamycin using a single bacterial colony. This is incubated overnight at 28° C. shaking at 200 rpm. This entire overnight culture is used to inoculate a 50 ml volume of LB containing the same antibiotics. Again this is cultured overnight at 28° C. shaking at 200 rpm. The Agrobacterium cells are pelleted by centrifuging at 3000 rpm for 15 minutes and then resuspended in MS (Murashige and Skoog) medium containing 30 g/l sucrose, pH 5.9 to an OD (600 nM)=0.6. This suspension is dispensed in 25 ml aliquots into petri dishes.
Clonally micro-propagated tobacco shoot cultures are used to excise young (not yet fully expanded) leaves. The mid rib and outer leaf margins are removed and discarded, and the remaining lamina cut into 1 cm squares. These are transferred to the Agrobacterium suspension for 20 minutes. […]
(§2) As shoots start to regenerate from the callusing leaf explants, these are removed to Shoot elongation medium (MS medium, 30 g/l sucrose, 8 g/l plantagar, 100 mg/l kanamycin, 200 mg/l timentin, 250 mg/l carbenicillin, pH 5.9). Stable transgenic plants readily root within 2 weeks. […]
(§3) Putative transgenic plants that are rooting and showing vigorous shoot growth on the medium incorporating kanamycin are analysed by PCR using primers that amplified a 500 bp fragment within the HPPD transgene. […]
(§4) A sub-set of about 30 plants were then selected on the basis of similar size from each population for spray testing. […] Plants were assessed for damage and scored at 14 days after treatment (DAT). […]

Data set [4] has as its system tobacco plants expressing Pseudomonas fluorescens HPPD (SEQ ID NO: 14). In words: Glasshouse spray test on transgenic tobacco expressing Pseudomonas HPPD. As to conditions: 600 g/ha isoxaflutole, 14 DAT. It is filed as in vivo. As to the method:
as §1
(§5) For example, a master plate of Agrobacterium tumefaciens containing the HPPD expressing binary vector is used to inoculate 10 ml LB (L broth) containing 100 mg/l rifampicin plus 50 mg/l kanamycin using a single bacterial colony. This is incubated overnight at 28° C. shaking at 200 rpm. This entire overnight culture is used to inoculate a 50 ml volume of LB containing the same antibiotics. Again this is cultured overnight at 28° C. shaking at 200 rpm. […]
as §2, §3, §4

The test system of data set [5] is tobacco plants expressing Arabidopsis HPPD (SEQ ID NO: 13). In words: Glasshouse spray test on transgenic tobacco expressing Arabidopsis HPPD. It is filed as in vivo. As to conditions: 600 g/ha isoxaflutole, 14 DAT. The procedure:
as §1, §5, §2, §3, §4

The target in data set [6] is T1, Avena-derived HPPD SEQ ID NO: 1. In words: HPPD assay for KmHPP and kcat (HPLC/UV quantitation of homogentisate). The data set is classed as biochemical. As to conditions: 25° C. The procedure:
The assay solution was transferred to Chromacol 03-CVG HPLC vials, sealed and the amount of homogentisate formed in a 40 μl aliquot determined by injection onto a reverse phase Aqua C18 5μ 75×4.6 mm HPLC column running 5.5% acetonitrile 0.1% TFA (Buffer A) at 1.5 ml/min. The column was eluted at 1.5 ml/minute using a 2 minute wash in buffer A, followed by a 2 minute wash in a 30/70 mixture of buffer A and 100% acetonitrile, and a further 3.5 minute wash in buffer A. The elution of homogentisate was monitored by UV at 292 nm and the amount formed in each reaction quantified by comparison with a standard calibration curve.
Km and Vmax values were determined (for example FIG. 1) using a non linear least squares fit using Grafit 4™ software (Erithacus Software, Middlesex, UK). Kcat values were determined by dividing the maximum rate, Vmax expressed in nmol/s by the number of nmoles of HPPD enzyme (based on the concentration determined by active-site titration).
For the alternative assumption of one active site per monomer then calculated kcat values should simply be correspondingly and systematically halved.

Where [7] appears, read: 25° C., individual measurements.
Setting [8] is: 25° C., read-out: Off rate k1 / koff (average or final estimate).
Setting [9] is: 25° C., individual measurements, read-out: Off rate k1, individual experiments.
[10] abbreviates: Kd of inhibitor over Km HPP of SEQ ID NO: 1.

Where “and” joins values, the source holds several entries; their conditions need not be identical. Identical values can stand only once. Like-named read-outs stand apart in the source and are kept apart here.

As to `CS(=O)(=O)c1ccc(C(=O)C2C(=O)CCCC2=O)c(Cl)c1COCC(F)(F)F` [Compound E], in data set [1], the equilibrium dissociation constant (Kd) was 0.228 nM and the Kd/Km ratio is 0.000042. In data set [1] (setting [7]), the “Off rate k1, individual experiments” value is 2.02E-05 s^−1 and 3.00E-05 s^−1 and 3.67E-05 s^−1 and 3.17E-05 s^−1 (2×) and 2.67E-05 s^−1 (2×) and 3.33E- 05 s^−1. In addition, the koff in data set [1] (read-out: Off rate k1, individual experiments, 25° C., individual measurements) came out at 3.08e-05 s⁻¹.
Take `CS(=O)(=O)c1cc(C(F)(F)F)ccc1C(=O)C(C#N)C(=O)C1CC1` (stereo not shown) [Compound D]: the Kd in data set [1] worked out at 1.36 nM. Also, the koff in data set [1] (setting [8]) is 4.39e-05 s⁻¹; in data set [1] (setting [9]) it was 4.5e-05 s⁻¹. For the same molecule, the Kd/Km ratio in data set [1] (setting [10]) came to 0.00025. The kon in data set [2] came to 57000 M⁻¹ s⁻¹.
As to `CS(=O)(=O)c1ccc(C(=O)C2C(=O)CCCC2=O)c([N+](=O)[O-])c1` [Compound B, mesotrione], the “Events exhibiting < or equal to 10% damage” value in data set [3] (600 g/ha mesotrione) was “Five out of 33”.
With `CCOc1c(S(C)(=O)=O)ccc(C(=O)C2C(=O)CC(C)CC2=O)c1Cl` (stereo not shown) [Compound A], the Kd/Km ratio in data set [1] (setting [10]) is listed as 0.000036.
Regarding `COCCOCc1nc(C(F)(F)F)ccc1C(=O)C1C(=O)C2CCC(C2)C1=O` (stereo not shown) [Compound C], the affinity in data set [1], expressed as Kd, was 7.1 nM. For the same molecule, the values for the koff in data set [1] (setting [8]) and in data set [1] (setting [9]) were 5.3e-05 s⁻¹ and 5.67e-05 s⁻¹, respectively. Besides, the Kd/Km ratio in data set [1] (setting [10]) came to 0.0013.
On to `Cc1c(C(=O)C2C=NN(C)C2=O)ccc(S(C)(=O)=O)c1C1=NOCC1` (stereo not shown) [Compound F], for which the koff in data set [1] (setting [8]) was 6.72e-05 s⁻¹; in data set [1] (setting [9]), 7.08e-05 s⁻¹. For the same molecule, the “Off rate k1, individual experiments” value in data set [1] (setting [7]) is 6e-05 s⁻¹ and 7e-05 s⁻¹ and 6.83e-05 s⁻¹.
In the case of `CS(=O)(=O)c1cc(C(F)(F)F)ccc1C(=O)c1cnoc1C1CC1` [isoxaflutole], the Bleaching entry is “Full and Partly” in data set [4]; “Full” in data set [5]; “Full and Green and Partly” in data set [3] (600 g/ha isoxaflutole). For the same molecule, in data set [4], the “Plants showing 50% damage or less” value was 4/32. The “Events showing less than 20% damage” value in data set [3] (600 g/ha isoxaflutole) is reported as 3/33.

B1: SEQ ID NO: 1: the HPPD amino acid sequence of Avena sativa (protein, listed as Avena sativa)
chain: MPPTPATATGAAAAAVTPEHAARSFPRVVRVNPRSDRFPVLSFHHVELWCADAASAAGRFSFALGAPLAARSDLSTGNSAHASLLLRSGALAFLFTAPYAPPPQEAATAATASIPSFSADAARTFAAAHGLAVRSVGVRVADAAEAFRVSVAGGARPAFAPADLGHGFGLAEVELYGDVVLRFVSYPDETDLPFLPGFERVSSPGAVDYGLTRFDHVVGNVPEMAPVIDYMKGFLGFHEFAEFTAEDVGTTESGLNSVVLANNSEAVLLPLNEPVHGTKRRSQIQTYLEYHGGPGVQHIALASNDVLRTLREMRARTPMGGFEFMAPPQAKYYEGVRRIAGDVLSEEQIKECQELGVLVDRDDQGVLLQIFTKPVGDRPTFFLEMIQRIGCMEKDEVGQEYQKGGCGGFGKGNFSELFKSIEDYEKSLEVKQSVVAQKS
For B1, the Michaelis-Menten constant (Km) in data set [6] (pH 7.0) was 5.38 µM. Moreover, the kcat average in data set [6] (one active-site per dimer assumed) turned out to be 6.46 s⁻¹.
